{"source": "PubChem BioAssay AID1259411", "about": "(Chemical Carcinogenesis Research Information System (CCRIS), 2018)", "system": "rodent carcinogenicity bioassays, tumor incidence", "test": "CCRIS carcinogenicity studies", "details": "Dose: 0, Dose: 0", "method_in_brief": "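Archive of carcinogenicity, mutagenicity, tumor promotion and tumor inhibition results drawn from journals, NCI reports and other sources, expert-reviewed; covers 1985-2011 and is no longer updated.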", "note": "Active and inactive are the calls of the source. How the calls were made is not given here.", "data": [{"smiles": "OCC(Br)CBr", "note": "(stereo unspecified)", "values": [{"measurement": "carcinogen call", "setting": "Species: MOUSE, Strain/Sex: B6C3F1/FEMALE, Route: DERMAL, 188, 375 MG/KG IN ETHANOL APPLIED TO SUBSCAPULAR SKIN 5 D/WK FOR 39-42 WK (STUDY DURATION: 42 WK), 188, 375 MG/KG IN ETHANOL APPLIED TO SUBSCAPULAR SKIN 5 D/WK FOR 39-42 WK (STUDY DURATION: 42 WK), Tumor Site: Type of Lesion: SKIN: SQUAMOUS CELL PAPILLOMA, FORESTOMACH: SQUAMOUS CELL PAPILLOMA, SQUAMOUS CELL CARCINOMA", "result": "active; positive"}, {"measurement": "carcinogen call", "setting": "Species: MOUSE, Strain/Sex: B6C3F1/MALE, Route: DERMAL, 188, 375 MG/KG IN ETHANOL APPLIED TO SUBSCAPULAR SKIN 5 D/WK FOR 36-39 WK (STUDY DURATION: 42 WK), 188, 375 MG/KG IN ETHANOL APPLIED TO SUBSCAPULAR SKIN 5 D/WK FOR 36-39 WK (STUDY DURATION: 42 WK), Tumor Site: Type of Lesion: SKIN: SQUAMOUS CELL PAPILLOMA, FORESTOMACH: SQUAMOUS CELL PAPILLOMA, LUNG: ALVEOLAR/BRONCHIOLAR ADENOMA, LIVER: HEPATOCE, Tumor Site: Type of Lesion: SKIN: SQUAMOUS CELL PAPILLOMA, FORESTOMACH: SQUAMOUS CELL PAPILLOMA, LUNG: ALVEOLAR/BRONCHIOLAR ADENOMA, LIVER: HEPATOCE", "result": "active; positive"}, {"measurement": "carcinogen call", "setting": "Species: RAT, Strain/Sex: F344/FEMALE, Route: DERMAL, 188, 375 MG/KG IN ETHANOL APPLIED TO SUBSCAPULAR SKIN 5 D/WK FOR 52-55 WK (STUDY DURATION: 56 WK), 188, 375 MG/KG IN ETHANOL APPLIED TO SUBSCAPULAR SKIN 5 D/WK FOR 52-55 WK (STUDY DURATION: 56 WK), Tumor Site: Type of Lesion: SKIN: SQUAMOUS CELL PAPILLOMA OR CARCINOMA, BASAL CELL TUMOR, KERATOACANTHOMA, ORAL MUCOSA: SQUAMOUS CELL PAPILLOMA, SQU", "result": "active; positive"}, {"measurement": "carcinogen call", "setting": "Species: RAT, Strain/Sex: F344/MALE, Route: DERMAL, 188, 375 MG/KG IN ETHANOL APPLIED TO SUBSCAPULAR SKIN 5 D/WK FOR 48-51 WK (STUDY DURATION: 56 WK), 188, 375 MG/KG IN ETHANOL APPLIED TO SUBSCAPULAR SKIN 5 D/WK FOR 48-51 WK (STUDY DURATION: 56 WK), Tumor Site: Type of Lesion: SKIN: SQUAMOUS CELL PAPILLOMA OR CARCINOMA, BASAL CELL TUMOR, SEBACEOUS ADENOMA, KERATOACANTHOMA, ORAL MUCOSA: SQUAMOUS", "result": "active; positive"}]}, {"smiles": "O=C(O)C(Br)Br", "values": [{"measurement": "carcinogen call", "setting": "Species: Mouse, Strain/Sex: B6C3F1/Female, Route: Oral, 50, 500, 1,000 mg/l in drinking water for 2 yr, 50, 500, 1,000 mg/l in drinking water for 2 yr, Tumor Site: Type of Lesion: Liver: Hepatocellular adenoma (19/49; 26/50; 32/50; 35/49), Hepatocellular carcinoma (3/49, 3/50, 12/50, 8/49), Hepatoce, Tumor Site: Type of Lesion: Liver: Hepatocellular adenoma (19/49; 26/50; 32/50; 35/49), Hepatocellular carcinoma (3/49, 3/50, 12/50, 8/49), Hepatoce", "result": "active; positive (ntp reports as clear evidence)"}, {"measurement": "carcinogen call", "setting": "Species: Mouse, Strain/Sex: B6C3F1/Male, Route: Oral, 50, 500, 1,000 mg/l in drinking water for 2 yr, 50, 500, 1,000 mg/l in drinking water for 2 yr, Tumor Site: Type of Lesion: Liver: Hepatocellular adenoma (18/49; 37/50; 42/50), Hepatocellular carcinoma (14/49, 9/50, 19/50, 26/50), Hepato, Tumor Site: Type of Lesion: Liver: Hepatocellular adenoma (18/49; 37/50; 42/50), Hepatocellular carcinoma (14/49, 9/50, 19/50, 26/50), Hepato", "result": "active; positive (ntp reports as clear evidence)"}, {"measurement": "carcinogen call", "setting": "Species: Rat, Strain/Sex: F344/N/Female, Route: Oral, 50, 500, 1000 mg/l in drinking water for 2 yr, 50, 500, 1000 mg/l in drinking water for 2 yr, Tumor Site: Type of Lesion: All organs: Mononuclear cell leukemia (11/50, 13/50, 16/50, 22/50)", "result": "active; positive trend (not statistically significant) (ntp reports as some evidence)"}, {"measurement": "carcinogen call", "setting": "Species: Rat, Strain/Sex: F344/N/Male, Route: Oral, 50, 500, 1000 mg/l in drinking water continuous for 2 yr, 50, 500, 1000 mg/l in drinking water continuous for 2 yr, Tumor Site: Type of Lesion: All organs: Malignant mesothelioma (3/50, 1/50, 0/50, 10/50), Mononuclear cell leukemia (17/50, 31/50, 24/50, 13/50)", "result": "active; positive (malignant mesothelioma) (ntp reports as some evidence); mononuclear ce"}]}, {"smiles": "Nc1ccc(C(=O)Nc2ccccc2N)cc1", "values": [{"measurement": "carcinogen call", "setting": "Species: RAT, Strain/Sex: CD-1/FEMALE, Route: GAVAGE, 1, 3, 9 (WK 1-25), 6 (WK 26-46), 5 (WK 47-106) MG/KG IN 0.8% METHOCEL (TOTAL VOLUME 0.2-0.5 ML/RAT 2/WK FOR 105 WK (M, 1, 3, 9 (WK 1-25), 6 (WK 26-46), 5 (WK 47-106) MG/KG IN 0.8% METHOCEL (TOTAL VOLUME 0.2-0.5 ML/RAT 2/WK FOR 105 WK (M, Tumor Site: Type of Lesion: ADRENAL GLAND: TUMOR, OVARIES: TUMOR, VAGINA: TUMOR, Tumor Site: Type of Lesion: ADRENAL GLAND: TUMOR, OVARIES: TUMOR, VAGINA: TUMOR", "result": "active; positive"}, {"measurement": "carcinogen call", "setting": "Species: RAT, Strain/Sex: CD-1/MALE, Route: GAVAGE, 1, 3, 9 (WK 1-25), 6 (WK 26-46), 5 (WK 47-106) MG/KG IN 0.8% METHOCEL(TOTAL VOLUME 0.2-0.5 ML/RAT 2/WK FOR 105 WK (ME, 1, 3, 9 (WK 1-25), 6 (WK 26-46), 5 (WK 47-106) MG/KG IN 0.8% METHOCEL(TOTAL VOLUME 0.2-0.5 ML/RAT 2/WK FOR 105 WK (ME, Tumor Site: Type of Lesion: ADRENAL GLAND: TUMOR, TESTES: TUMOR", "result": "active; positive"}]}, {"smiles": "CSC1=N[C@@](C)(c2ccccc2)C(=O)N1Nc1ccccc1", "values": [{"measurement": "carcinogen call", "setting": "Species: Mouse, Strain/Sex: C57BL/10JfCD-1 Alpk/Female (55/Group), Route: Oral, 70, 350, 3500, 7000 ppm (0; 12.6; 63.8; 690.5; 1393.2 mg/kg/d) for 80 wks, study duration 80 wks, 70, 350, 3500, 7000 ppm (0; 12.6; 63.8; 690.5; 1393.2 mg/kg/d) for 80 wks, study duration 80 wks", "result": "inactive; negative"}, {"measurement": "carcinogen call", "setting": "Species: Mouse, Strain/Sex: C57BL/10JfCD-1 Alpk/Male (55/Group), Route: Oral, 70, 350, 3500, 7000 ppm (0; 9.5; 47.5; 525.5; 1100.2 mg/kg/d) for 80 wks, study duration 80 wks, 70, 350, 3500, 7000 ppm (0; 9.5; 47.5; 525.5; 1100.2 mg/kg/d) for 80 wks, study duration 80 wks", "result": "inactive; negative"}, {"measurement": "carcinogen call", "setting": "Species: Rat, Strain/Sex: Sprague-Dawley/Female (70/Group), Route: Oral, 60, 150, 1000 ppm (0; 3.63; 9.24; 60.93 mg/kg/day) in diet for 104 wks, study duration 104 wks, 60, 150, 1000 ppm (0; 3.63; 9.24; 60.93 mg/kg/day) in diet for 104 wks, study duration 104 wks", "result": "inactive; negative"}, {"measurement": "carcinogen call", "setting": "Species: Rat, Strain/Sex: Sprague-Dawley/Female (70/Group), Route: Oral, 5000 ppm in diet for 104 wks, study duration 104 wks, 5000 ppm in diet for 104 wks, study duration 104 wks", "result": "inactive; negative"}, {"measurement": "carcinogen call", "setting": "Species: Rat, Strain/Sex: Sprague-Dawley/Male (70/Group), Route: Oral, 60, 150, 1000 ppm (0; 2.83; 7.07; 47.68 mg/kg/day) in diet for 104 wks, study duration 104 wks, 60, 150, 1000 ppm (0; 2.83; 7.07; 47.68 mg/kg/day) in diet for 104 wks, study duration 104 wks", "result": "inactive; negative"}, {"measurement": "carcinogen call", "setting": "Species: Rat, Strain/Sex: Sprague-Dawley/Male (70/Group), Route: Oral, 5000 ppm in diet for 104 wks, study duration 104 wks, 5000 ppm in diet for 104 wks, study duration 104 wks", "result": "inactive; negative"}]}, {"smiles": "Cn1c(N)nc2c3ccc(=O)[nH]c3ccc21", "values": [{"measurement": "carcinogen call", "setting": "Species: MOUSE, Strain/Sex: CD-1/FEMALE, Route: INTRAPERITONEAL, ORAL, 5 µL OF A 21.7 MG/ML SOLUTION IN DMSO ON DAYS 1, 3, 5, 7, 10, 13, 17, 21, 24 AND 28 OF LIFE THEN 2/WK TO WK 10 FOLLOW, Tumor Site: Type of Lesion: LIVER: CARCINOMA", "result": "active; positive"}, {"measurement": "carcinogen call", "setting": "Species: MOUSE, Strain/Sex: CD-1/MALE, Route: INTRAPERITONEAL, ORAL, 5 µL OF A 21.7 MG/ML SOLUTION IN DMSO ON DAYS 1, 3, 5, 7, 10, 13, 17, 21, 24 AND 28 OF LIFE THEN 2/WK TO WK 10 FOLLOW", "result": "inactive; negative"}, {"measurement": "carcinogen call", "setting": "Species: RAT, Strain/Sex: F344/MALE, Route: INTRARECTAL, 54.8 MG/KG IN 1.7 ML/KG DMSO INFUSED 3/WK FOR 2 MO THEN 2/WK FOR DURATION OF STUDY (STUDY DURATION: 21 MO)", "result": "inactive; negative"}]}, {"smiles": "CCC[CH2][Sn]([CH2]CCC)([CH2]CCC)[O][Sn]([CH2]CCC)([CH2]CCC)[CH2]CCC", "values": [{"measurement": "carcinogen call", "setting": "Species: RAT, Strain/Sex: WISTAR/FEMALE, Route: ORAL, 0.5, 5, 50 MG/KG DIET FOR 30 MO (STUDY DURATION: 30 MO), 0.5, 5, 50 MG/KG DIET FOR 30 MO (STUDY DURATION: 30 MO), Tumor Site: Type of Lesion: ADRENAL GLAND: PHEOCHROMOCYTOMA, PITUITARY: TUMOR", "result": "active; positive"}, {"measurement": "carcinogen call", "setting": "Species: RAT, Strain/Sex: WISTAR/MALE, Route: ORAL, 0.5, 5, 50 MG/KG DIET FOR 30 MO (STUDY DURATION: 30 MO), 0.5, 5, 50 MG/KG DIET FOR 30 MO (STUDY DURATION: 30 MO), Tumor Site: Type of Lesion: ADRENAL GLAND: PHEOCHROMOCYTOMA, PITUITARY: TUMOR, PARATHYROID: ADENOMA, Tumor Site: Type of Lesion: ADRENAL GLAND: PHEOCHROMOCYTOMA, PITUITARY: TUMOR, PARATHYROID: ADENOMA", "result": "active; positive"}]}]}
